From patent US9096581B2, “Fluoroethyl thiamine or salts thereof and application thereof in preparation of anticoccidial drugs” (GUANGZHOU ORIGMOL FEED-ADDITIVE CO., LTD, priority 2012, dated 2015)

Test system: Eimeria tenella GD strains
Assay: Comparison with other anticoccidial drugs in chickens infected with Eimeria tenella GD (Embodiment 3)
Format: in vivo
Set-up: oocyst value: scale not given here
Details: for number of oocysts in cecum / lesion value / average weight gain: 7th day; for lesion value: cecum, scale 0-40; for survival rate / average weight gain / bloody feces scoring: chickens; for bloody feces scoring: 5 days after infecting, score 0-4; for oocyst value: converted per Table 2; for relative weight gain rate: vs non-infected non-drug control
Text: 1-day-old Lingnan yellow chickens, purchased from Poultry Research Unit, Bureau of Animal Husbandry, Guangdong Academy of Agricultural Sciences, bred under coccidium-free environment, and subjected to experiment after no coccidium oocyst is found in feces through microscopic examination when the chickens are 14 days old. Perfect compound feed for chickens: prepared by Huizhou Yuantai Feed Co. Ltd., and containing no antibacterial or anticoccidial additive.
Eimeria tenella GD strains, having no resistance to various anticoccidial drugs. Breeding and amplifying in one chicken before the experiment, collecting fresh oocysts, sporulating, and preserving at 4° C. for later use.
Weighing the 14-day-old experiment chickens one by one, rejecting emaciated chickens or overweighted chickens, selecting healthy chickens of which the individual body weight difference is within 20 g, and dividing into 6 groups with 30 chickens in each group. Groups 1 and 2 are respectively a non-drug-applied and non-coccidium-killed control group and a coccidium-infected and non-drug-applied control group, and Groups 3-6 are respectively added with different anticoccidial drugs according to Table 4. Feeding with feed containing different drugs on the day of experiment grouping, enabling the chickens to freely take in the feed, and feeding the chickens until the experiment ends.
Except the non-coccidium-infected and non-drug-applied control group, giving each experiment chicken in each experiment group with 2.5×10^5 eimeria tenella sporulated oocysts via the crop on next day of the grouping day. During experiment, observing and recording the spirit, appetite, bloody feces situation, death count and the like of the chickens every day. Performing bloody feces scoring on the chickens in each group 5 days after infecting. On the 7th day, respectively weighing all the chickens in each group, then autopsying them, observing cecum lesions and counting the oocysts in the cecum.
The evaluation standard is the same with Embodiment 2.

Row | Structure (SMILES) | anticoccidial index (ACI) (5 ppm in feed) | number of oocysts in cecum (5 ppm in feed) | lesion value (5 ppm in feed) | survival rate (5 ppm in feed) | average weight gain (5 ppm in feed) | bloody feces scoring (5 ppm in feed) | oocyst value (5 ppm in feed) | relative weight gain rate (5 ppm in feed) | anticoccidial index (ACI) (125 ppm in feed) | number of oocysts in cecum (125 ppm in feed) | lesion value (125 ppm in feed) | survival rate (125 ppm in feed) | average weight gain (125 ppm in feed) | bloody feces scoring (125 ppm in feed) | oocyst value (125 ppm in feed) | relative weight gain rate (125 ppm in feed)
1 | CO[C@@H]1[C@@H](OC)[C@H](C)[C@@](O)(CC(=O)O)O[C@H]1[C@H](C)[C@H]1O[C@@]2(CC[C@@](C)([C@H]3CC[C@@](C)([C@@H]4O[C@@H]([C@H]5O[C@](C)(O)[C@H](C)C[C@@H]5C)C[C@@H]4O[C@@H]4C[C@H](OC)[C@@H](OC)[C@H](C)O4)O3)O2)C[C@H](O)[C@H]1C [maduramicin] | 186.7 | 1.265 ×10^6/chicken | 6 | 100% | 168.4 g/chicken | 0 | 5 | 97.7% |  |  |  |  |  |  |  | 
2 | Cc1cc(C)nc(O)n1.O=C(Nc1ccc([N+](=O)[O-])cc1)Nc1ccc([N+](=O)[O-])cc1 [nicarbazin] |  |  |  |  |  |  |  |  | 192.9 | 0 ×10^6/chicken | 0 | 100% | 160.5 g/chicken | 0 | 0 | 92.9%
